Experimental data from US20250230193A1, “CYCLIC COMPOUND HAVING SELECTIVE KRAS INHIBITORY EFFECT ON HRAS AND NRAS” (CHUGAI SEIYAKU KABUSHIKI KAISHA, priority 2022, published 2025).

Assays:
[1] = target: GDP-bound NRAS wild-type protein (Homo sapiens, UniProt P01111); assay: Binding to NRAS by surface plasmon resonance (SPR), Single Cycle Kinetics; details: KD ratio NRAS/KRAS, class symbols
[2] = target: GDP-bound HRAS wild-type protein (Homo sapiens, UniProt P01112); assay: Binding to HRAS by surface plasmon resonance (SPR), Single Cycle Kinetics; details: KD ratio HRAS/KRAS, class symbols
Chain of GDP-bound HRAS wild-type protein (P01112 whole entry): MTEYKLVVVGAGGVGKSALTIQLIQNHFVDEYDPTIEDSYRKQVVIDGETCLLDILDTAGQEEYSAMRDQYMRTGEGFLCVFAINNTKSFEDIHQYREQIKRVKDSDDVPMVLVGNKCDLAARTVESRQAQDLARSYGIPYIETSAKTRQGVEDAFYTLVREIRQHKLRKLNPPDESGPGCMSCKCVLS

Chain of GDP-bound NRAS wild-type protein (P01111 whole entry): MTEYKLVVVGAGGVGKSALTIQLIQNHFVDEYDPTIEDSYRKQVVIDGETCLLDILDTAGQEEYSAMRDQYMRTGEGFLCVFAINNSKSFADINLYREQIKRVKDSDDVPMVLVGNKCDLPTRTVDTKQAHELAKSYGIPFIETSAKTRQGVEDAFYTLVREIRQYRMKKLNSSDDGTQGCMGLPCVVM

Compound | NRAS/KRAS (ratio of KD value with respect to GDP-bound NRAS wild-type protein to KD value with respect to KRAS) [1] | HRAS/KRAS (ratio of KD value with respect to GDP-bound HRAS wild-type protein to KD value with respect to KRAS) [2]
CCO[C@@H]1C[C@H]2C(=O)NC3(CC(C)(C)C3)C(=O)N(C)[C@@H](C3CCCC3)C(=O)N(C)[C@H](C(=O)N3CCCC3)CC(=O)N(C)[C@H]3CCC/C=C/c4ccc(cc4)C[C@@H](C(=O)N(C)CC(=O)N[C@@H](CCc4cc(F)c(C(F)(F)F)c(F)c4)C(=O)N2C1)N1CC/C=C\C[C@@H](C1=O)N(C)C(=O)CN(C)C(=O)[C@H]([C@@H](C)CC)NC3=O [PP2574, (1S,7S,11R,13S,19S,22S,26S,29S,35S,37Z,47E)-19-cyclopentyl-7-[2-[3,5-difluoro-4-(trifluoromethyl)phenyl]ethyl]-11-ethoxy-3,3′,3′,18,21,25,31,34-octamethyl-29-[(1S)-1-methylpropyl]-22-(pyrrolidine-1-carbonyl)spiro[3,6,9,15,18,21,25,28,31,34,41-undecazapentacyclo[24.15.10.2^43,46.1^35,41.0^9,13]tetrapentaconta-37,43(53),44,46(52),47-pentaene-16,1′-cyclobutane]-2,5,8,14,17,20,24,27,30,33,54-undecone] | A (a compound having 10 or more and less than 20 is denoted as A) | A (a compound having 10 or more and less than 20 is denoted as A)
CCO[C@@H]1C[C@H]2C(=O)NC3(CC(C)(C)C3)C(=O)N(C)[C@@H](C(CC)CC)C(=O)N(C)[C@H](C(=O)N(C)C)CC(=O)N(C)[C@H]3CCC/C=C/c4ccc(cc4)C[C@@H](C(=O)N(C)CC(=O)N[C@@H](CCc4cc(F)c(C(F)(F)F)c(F)c4)C(=O)N2C1)N1CC/C=C\C[C@@H](C1=O)N(C)C(=O)CN(C)C(=O)[C@H]([C@@H](C)CC)NC3=O [PP2575] | A (a compound having 10 or more and less than 20 is denoted as A) | A (a compound having 10 or more and less than 20 is denoted as A)
CCO[C@@H]1C[C@H]2C(=O)NC3(CC(C)(C)C3)C(=O)N(C)[C@@H](C(CC)CC)C(=O)N(C)[C@H](C(=O)N3CCCC3)CC(=O)N(C)[C@H]3CCC/C=C/c4ccc(cc4)C[C@@H](C(=O)N(C)CC(=O)N[C@@H](CCc4cc(F)c(C(F)(F)F)c(F)c4)C(=O)N2C1)N1CC/C=C\C[C@@H](C1=O)N(C)C(=O)CN(C)C(=O)[C@H]([C@@H](C)CC)NC3=O [PP2576] | A (a compound having 10 or more and less than 20 is denoted as A) | A (a compound having 10 or more and less than 20 is denoted as A)
CCO[C@@H]1C[C@H]2C(=O)NC3(CC(C)(C)C3)C(=O)N(C)[C@@H](C3CCCC3)C(=O)N(C)[C@H](C(=O)N(C)CC)CC(=O)N(C)[C@H]3CCC/C=C/c4ccc(cc4)C[C@@H](C(=O)N(C)CC(=O)N[C@@H](CCc4ccc(Cl)c(Cl)c4)C(=O)N2C1)N1CC/C=C\C[C@@H](C1=O)N(C)C(=O)CN(C)C(=O)[C@H]([C@@H](C)CC)NC3=O [PP2577] | A (a compound having 10 or more and less than 20 is denoted as A) | A (a compound having 10 or more and less than 20 is denoted as A)
CCO[C@@H]1C[C@H]2C(=O)NC3(CC(C)(C)C3)C(=O)N(C)[C@@H](C3CCCC3)C(=O)N(C)[C@H](C(=O)N3CCCCC3)CC(=O)N(C)[C@H]3CCC/C=C/c4ccc(cc4)C[C@@H](C(=O)N(C)CC(=O)N[C@@H](CCc4ccc(Cl)c(Cl)c4)C(=O)N2C1)N1CC/C=C\C[C@@H](C1=O)N(C)C(=O)CN(C)C(=O)[C@H]([C@@H](C)CC)NC3=O [PP2578] | AA (a compound having 20 or more is denoted as AA) | A (a compound having 10 or more and less than 20 is denoted as A)
CCO[C@@H]1C[C@H]2C(=O)NC3(CC(C)(C)C3)C(=O)N(C)[C@@H](C(CC)CC)C(=O)N(C)[C@H](C(=O)N(C)C)CC(=O)N(C)[C@H]3CCC/C=C/c4ccc(cc4)C[C@@H](C(=O)N(C)CC(=O)N[C@@H](CCc4ccc(Cl)c(Cl)c4)C(=O)N2C1)N1CC/C=C\C[C@@H](C1=O)N(C)C(=O)CN(C)C(=O)[C@H]([C@@H](C)CC)NC3=O [PP2580] | AA (a compound having 20 or more is denoted as AA) | A (a compound having 10 or more and less than 20 is denoted as A)
CCO[C@@H]1C[C@H]2C(=O)NC3(CC(C)(C)C3)C(=O)N(C)[C@@H](C(CC)CC)C(=O)N(C)[C@H](C(=O)N3CCCC3)CC(=O)N(C)[C@H]3CCC/C=C/c4ccc(cc4)C[C@@H](C(=O)N(C)CC(=O)N[C@@H](CCc4ccc(Cl)c(Cl)c4)C(=O)N2C1)N1CC/C=C\C[C@@H](C1=O)N(C)C(=O)CN(C)C(=O)[C@H]([C@@H](C)CC)NC3=O [PP2581] | AA (a compound having 20 or more is denoted as AA) | A (a compound having 10 or more and less than 20 is denoted as A)
CCO[C@@H]1C[C@H]2C(=O)NC3(CC(C)(C)C3)C(=O)N(C)[C@@H](C3CCCC3)C(=O)N(C)[C@H](C(=O)N3CCCC3)CC(=O)N(C)[C@H]3CCC/C=C/c4ccc(cc4)C[C@@H](C(=O)N(C)CC(=O)N[C@@H](CCc4cc(F)c(C(F)(F)F)c(F)c4)C(=O)N2C1)N1CC/C=C\C[C@@H](C1=O)N(C)C(=O)CN(C1CC1)C(=O)[C@H]([C@@H](C)CC)NC3=O [PP2583] | A (a compound having 10 or more and less than 20 is denoted as A) | A (a compound having 10 or more and less than 20 is denoted as A)
CCO[C@@H]1C[C@H]2C(=O)NC3(CC(C)(C)C3)C(=O)N(C)[C@@H](C(CC)CC)C(=O)N(C)[C@H](C(=O)N(C)C)CC(=O)N(C)[C@H]3CC/C=C/c4ccc(cc4)C[C@@H](C(=O)N(C)CC(=O)N[C@@H](CCc4cc(F)c(C(F)(F)F)c(F)c4)C(=O)N2C1)N1CC/C=C\C[C@@H](C1=O)N(C)C(=O)CN(C)C(=O)[C@H]([C@@H](C)CC)NC3=O [PP2586] | A (a compound having 10 or more and less than 20 is denoted as A) | B (a compound having 3 or more and less than 10 is denoted as B)
CCO[C@@H]1C[C@H]2C(=O)NC3(CC(C)(C)C3)C(=O)N(C)[C@@H](C(CC)CC)C(=O)N(C)[C@H](C(=O)N(C)C)CC(=O)N(C)[C@H]3CC/C=C/c4ccc(cc4)C[C@@H](C(=O)N(C)CC(=O)N[C@@H](CCc4ccc(Cl)c(Cl)c4)C(=O)N2C1)N1CC/C=C\C[C@@H](C1=O)N(C)C(=O)CN(C)C(=O)[C@H]([C@@H](C)CC)NC3=O [PP2589] | AA (a compound having 20 or more is denoted as AA) | A (a compound having 10 or more and less than 20 is denoted as A)
CCO[C@@H]1C[C@H]2C(=O)NC3(CC(C)(C)C3)C(=O)N(C)[C@@H](C3CCCC3)C(=O)N(C)[C@H](C(=O)N(C)CC)CC(=O)N(C)[C@H]3CCCC/C=C/c4ccc(cc4)C[C@@H](C(=O)N(C)CC(=O)N[C@@H](CCc4ccc(Cl)c(Cl)c4)C(=O)N2C1)N1CC/C=C\C[C@@H](C1=O)N(C)C(=O)CN(C)C(=O)[C@H]([C@@H](C)CC)NC3=O [PP2592] | A (a compound having 10 or more and less than 20 is denoted as A) | A (a compound having 10 or more and less than 20 is denoted as A)
CCO[C@@H]1C[C@H]2C(=O)NC3(CC(C)(C)C3)C(=O)N(C)[C@@H](C3CCCC3)C(=O)N(C)[C@H](C(=O)N3CCCC3)CC(=O)N(C)[C@H]3CCCC/C=C/c4ccc(cc4)C[C@@H](C(=O)N(C)CC(=O)N[C@@H](CCc4ccc(Cl)c(Cl)c4)C(=O)N2C1)N1CC/C=C\C[C@@H](C1=O)N(C)C(=O)CN(C)C(=O)[C@H]([C@@H](C)CC)NC3=O [PP2593] | A (a compound having 10 or more and less than 20 is denoted as A) | A (a compound having 10 or more and less than 20 is denoted as A)
CCC(CC)[C@H]1C(=O)N(C)[C@H](C(=O)N(C)C)CC(=O)N(C)[C@H]2CCC/C=C/c3ccc(cc3)C[C@@H](C(=O)N(C)CC(=O)N[C@@H](CCc3cc(F)c(C(F)(F)F)c(F)c3)C(=O)N3C[C@H](OC(C)C)C[C@H]3C(=O)NC3(CC(C)(C)C3)C(=O)N1C)N1CC/C=C\C[C@@H](C1=O)N(C)C(=O)CN(C)C(=O)[C@H]([C@@H](C)CC)NC2=O [PP2594] | A (a compound having 10 or more and less than 20 is denoted as A) | A (a compound having 10 or more and less than 20 is denoted as A)
CC[C@H](C)[C@@H]1NC(=O)[C@@H]2CCC/C=C/c3ccc(cc3)C[C@@H](C(=O)N(C)CC(=O)N[C@@H](CCc3ccc(Cl)c(Cl)c3)C(=O)N3C[C@H](OC(C)C)C[C@H]3C(=O)NC3(CC(C)(C)C3)C(=O)N(C)[C@@H](C3CCCC3)C(=O)N(C)[C@H](C(=O)N(C)CC)CC(=O)N2C)N2CC/C=C\C[C@@H](C2=O)N(C)C(=O)CN(C)C1=O [PP2595] | A (a compound having 10 or more and less than 20 is denoted as A) | B (a compound having 3 or more and less than 10 is denoted as B)
CC[C@H](C)[C@@H]1NC(=O)[C@@H]2CCC/C=C/c3ccc(cc3)C[C@@H](C(=O)N(C)CC(=O)N[C@@H](CCc3ccc(Cl)c(Cl)c3)C(=O)N3C[C@H](OC(C)C)C[C@H]3C(=O)NC3(CC(C)(C)C3)C(=O)N(C)[C@@H](C3CCCC3)C(=O)N(C)[C@H](C(=O)N3CCCC3)CC(=O)N2C)N2CC/C=C\C[C@@H](C2=O)N(C)C(=O)CN(C)C1=O [PP2596] | A (a compound having 10 or more and less than 20 is denoted as A) | A (a compound having 10 or more and less than 20 is denoted as A)
